# Test results: ChEMBL document CHEMBL4177660, “Discovery of furan and dihydrofuran-fused tricyclic benzo[d]imidazole derivatives as potent and orally efficacious microsomal prostaglandin E synthase-1 (mPGES-1) inhibitors: Part-1” (Bioorg Med Chem Lett, 2017)
# Key:
# [1] = Intrinsic solubility of the compound; type: physicochemical
# [2] = Ratio of drug level in Sprague-Dawley rat brain to plasma; type: ADME, cell-free; conditions: brain and plasma, read-out: BPR
# [3] = Permeability of the compound by PAMPA; type: ADME; conditions: read-out: permeability
# [4] = Solubility of the compound in DMSO; type: physicochemical
# [5] = Solubility of the compound in FaSSIF at pH 6; type: physicochemical
# [6] = Solubility of the compound in FeSSIF at pH 5.2; type: physicochemical
# [7] = Solubility of the compound in acetate buffer at pH 4.5; type: physicochemical
# [8] = Solubility of the compound in 0.1N HCl; type: physicochemical
# Rattus norvegicus [9] = test: Cmax in Sprague-Dawley rat at 10 mg/kg, po; type: ADME, organism-based; set-up: dose 10 mg/kg, route oral; conditions: in vivo
# Rattus norvegicus [10] = test: AUC (0 to 24 hrs) in Sprague-Dawley rat at 10 mg/kg, po; type: ADME, organism-based; set-up: time < 24 hr, dose 10 mg/kg, route oral; conditions: in vivo
# Rattus norvegicus [11] = test: Tmax in Sprague-Dawley rat at 10 mg/kg, po; type: ADME, organism-based; conditions: in vivo
# [12] = Oral bioavailability in Sprague-Dawley rat at 10 mg/kg; type: ADME, organism-based; conditions: in vivo
# [13] = Cmax in Sprague-Dawley rat at 30 mg/kg, po; type: ADME, organism-based; set-up: dose 30 mg/kg, route oral; conditions: in vivo
# [14] = AUC (0 to 24 hrs) in Sprague-Dawley rat at 30 mg/kg, po; type: ADME, organism-based; set-up: time < 24 hr, dose 30 mg/kg, route oral; conditions: in vivo
# [15] = Tmax in Sprague-Dawley rat at 30 mg/kg, po; type: ADME, organism-based; conditions: in vivo
# [16] = Oral bioavailability in Sprague-Dawley rat at 30 mg/kg; type: ADME, organism-based; conditions: in vivo
# [17] = Cmax in Sprague-Dawley rat at 100 mg/kg, po; type: ADME, organism-based; set-up: dose 100 mg/kg, route oral; conditions: in vivo
# [18] = AUC (0 to 24 hrs) in Sprague-Dawley rat at 100 mg/kg, po; type: ADME, organism-based; set-up: dose 100 mg/kg, time < 24 hr, route oral; conditions: in vivo
# [19] = Tmax in Sprague-Dawley rat at 100 mg/kg, po; type: ADME, organism-based; conditions: in vivo
# [20] = Cmax in Dunkin-Hartley guinea pig at 10 mg/kg, po; type: ADME, organism-based, Cavia porcellus; set-up: dose 10 mg/kg, route oral; conditions: in vivo
# [21] = AUC (0 to 24 hrs) in Dunkin-Hartley guinea pig at 10 mg/kg, po; type: ADME, organism-based, Cavia porcellus; set-up: time < 24 hr, dose 10 mg/kg, route oral; conditions: in vivo
# [22] = Tmax in Dunkin-Hartley guinea pig at 10 mg/kg, po; type: ADME, organism-based, Cavia porcellus; conditions: in vivo
# [23] = Cmax in Dunkin-Hartley guinea pig at 30 mg/kg, po; type: ADME, organism-based, Cavia porcellus; set-up: dose 30 mg/kg, route oral; conditions: in vivo
# [24] = AUC (0 to 24 hrs) in Dunkin-Hartley guinea pig at 30 mg/kg, po; type: ADME, organism-based, Cavia porcellus; set-up: dose 30 mg/kg, time < 24 hr, route oral; conditions: in vivo
# [25] = Tmax in Dunkin-Hartley guinea pig at 30 mg/kg, po; type: ADME, organism-based, Cavia porcellus; conditions: in vivo
# [26] = Cmax in Dunkin-Hartley guinea pig at 100 mg/kg, po; type: ADME, organism-based, Cavia porcellus; set-up: dose 100 mg/kg, route oral; conditions: in vivo
# [27] = AUC (0 to 24 hrs) in Dunkin-Hartley guinea pig at 100 mg/kg, po; type: ADME, organism-based, Cavia porcellus; set-up: time < 24 hr, dose 100 mg/kg, route oral; conditions: in vivo
# [28] = Tmax in Dunkin-Hartley guinea pig at 100 mg/kg, po; type: ADME, organism-based, Cavia porcellus; conditions: in vivo
# [29] = Cmax in Beagle dog at 10 mg/kg, po; type: ADME, organism-based, Canis lupus familiaris; set-up: dose 10 mg/kg, route oral; conditions: in vivo
# [30] = AUC (0 to 24 hrs) in Beagle dog at 10 mg/kg, po; type: ADME, organism-based, Canis lupus familiaris; set-up: time < 24 hr, dose 10 mg/kg, route oral; conditions: in vivo
# [31] = Tmax in Beagle dog at 10 mg/kg, po; type: ADME, organism-based, Canis lupus familiaris; conditions: in vivo
# [32] = Cmax in cynomolgus monkey at 10 mg/kg, po; type: ADME, organism-based, Macaca fascicularis; set-up: dose 10 mg/kg, route oral; conditions: in vivo
# [33] = AUC (0 to 24 hrs) in cynomolgus monkey at 10 mg/kg, po; type: ADME, organism-based, Macaca fascicularis; set-up: dose 10 mg/kg, time < 24 hr, route oral; conditions: in vivo
# [34] = Tmax in cynomolgus monkey at 10 mg/kg, po; type: ADME, organism-based, Macaca fascicularis; conditions: in vivo
# [35] = Oral bioavailability in cynomolgus monkey at 10 mg/kg; type: ADME, organism-based, Macaca fascicularis; conditions: in vivo
# Cynomolgus monkey = test: Apparent volume of distribution in cynomolgus monkey at 10 mg/kg, po; type: ADME, organism-based, Macaca fascicularis; conditions: in vivo
# [36] = Drug level in Sprague-Dawley rat brain; type: ADME, tissue-based; conditions: in vivo
# [37] = Drug level in Sprague-Dawley rat plasma; type: ADME, cell-free
# [38] = Plasma concentration in Dunkin-Hartley guinea pig model of LPS-induced thermal hyperalgesia at 3 mg/kg, po pretreated for 4 hrs followed by LPS challenge measured at […] post dose; type: ADME, organism-based, Cavia porcellus
# [39] = Plasma concentration in Dunkin-Hartley guinea pig model of LPS-induced thermal hyperalgesia at 10 mg/kg, po pretreated for 4 hrs followed by LPS challenge measured at […] post dose; type: ADME, organism-based, Cavia porcellus
# [40] = Plasma concentration in Dunkin-Hartley guinea pig model of LPS-induced thermal hyperalgesia at 30 mg/kg, po pretreated for 4 hrs followed by LPS challenge measured at […] post dose; type: ADME, organism-based, Cavia porcellus
# Rattus norvegicus [41] = test: Apparent volume of distribution in Sprague-Dawley rat at 1 mg/kg, iv; conditions: in vivo
compound,measurement,setting,value
CC1(C)Cc2c(c(C(=O)Nc3ccc(C(F)(F)F)cc3)cc3nc(Nc4c(F)cccc4Cl)[nH]c23)O1,solubility,[1],Soluble
same,Kp,[2],0.22
same,Papp,[3],0.13 ×10⁻⁶ cm/s
same,solubility,[4],25000 µg/mL
same,solubility,[5],0.9 µg/mL
same,solubility,[6],0.6 µg/mL
same,solubility,[7],Insoluble
same,solubility,[8],0.2 µg/mL
same,Cmax,Rattus norvegicus [9],546 ng/mL
same,AUC,Rattus norvegicus [10],6505 ng·h/mL
same,Tmax,Rattus norvegicus [11],2 h
same,bioavailability,[12],100%
same,Cmax,[13],2530 ng/mL
same,AUC(0-t) at 24 h,[14],32400 ng·h/mL
same,Tmax,[15],2 h
same,bioavailability,[16],100%
same,Cmax,[17],5550 ng/mL
same,AUC(0-t) at 24 h,[18],108000 ng·h/mL
same,Tmax,[19],8 h
same,Cmax,[20],426 ng/mL
same,AUC(0-t) at 24 h,[21],5080 ng·h/mL
same,Tmax,[22],4 h
same,Cmax,[23],742 ng/mL
same,AUC(0-t) at 24 h,[24],11600 ng·h/mL
same,Tmax,[25],4 h
same,Cmax,[26],736 ng/mL
same,AUC(0-t) at 24 h,[27],11700 ng·h/mL
same,Tmax,[28],2 h
same,Cmax,[29],1090 ng/mL
same,AUC(0-t) at 24 h,[30],22000 ng·h/mL
same,Tmax,[31],12 h
same,Cmax,[32],908 ng/mL
same,AUC(0-t) at 24 h,[33],16700 ng·h/mL
same,Tmax,[34],6 h
same,bioavailability,[35],78%
same,Vz,Cynomolgus monkey,1.67 L/kg
same,Drug uptake,[36],58.9 ng/mL
same,Cp,[37],268.9 ng/mL
same,concentration at […],[38],43 ng/mL
same,concentration at […],[39],116 ng/mL
same,concentration at […],[40],371 nM
same,Vz,Rattus norvegicus [41],3.59 L/kg
CC1(C)Cc2c(c(C(=O)NCC(F)(F)C(F)(F)F)cc3nc(Nc4c(Cl)cccc4Cl)[nH]c23)O1,solubility,[1],Soluble
CC1(C)Cc2c(c(C(=O)Nc3ccc(F)cc3)cc3nc(Nc4c(Cl)cccc4Cl)[nH]c23)O1,solubility,[1],Soluble
CC1(C)Cc2c(c(C(=O)Nc3ccc(F)c(C(F)(F)F)c3)cc3nc(Nc4c(Cl)cncc4Cl)[nH]c23)O1,solubility,[1],Soluble
CC1(C)Cc2c(c(C(=O)NCC3CC3)cc3nc(Nc4c(Cl)cncc4Cl)[nH]c23)O1,solubility,[1],Soluble
CC1(C)Cc2c(c(C(=O)Nc3ccccc3)cc3nc(Nc4c(Cl)cccc4Cl)[nH]c23)O1,solubility,[1],Soluble
CC1(C)Cc2c(c(C(=O)Nc3ccc(OC(F)F)nc3)cc3nc(Nc4c(F)cccc4Cl)[nH]c23)O1,solubility,[1],Soluble
CC1(C)Cc2c(c(C(=O)NC3CCC(F)(F)CC3)cc3nc(Nc4c(Cl)cccc4Cl)[nH]c23)O1,solubility,[1],Soluble
COc1ccc(NC(=O)c2cc3nc(Nc4c(Cl)cccc4Cl)[nH]c3c3c2OC(C)(C)C3)cn1,solubility,[1],Soluble
CC1(C)Cc2c(c(C(=O)NCC3CCCCC3)cc3nc(Nc4c(Cl)cncc4Cl)[nH]c23)O1,solubility,[1],Soluble
Cc1cc2c(o1)c(C(=O)Nc1ccc(C(F)(F)F)cc1)cc1nc(Nc3c(Cl)cncc3Cl)[nH]c12,solubility,[1],Insoluble
CC1(C)Cc2c(c(C(=O)NCC3CC3)cc3nc(Nc4c(Cl)cccc4Cl)[nH]c23)O1,solubility,[1],Soluble
CC1(C)Cc2c(c(C(=O)Nc3ccc(C(F)(F)F)cc3)cc3nc(Nc4c(Cl)cccc4Cl)[nH]c23)O1,solubility,[1],Soluble
same,solubility,[4],20000 µg/mL
same,solubility,[5],0.3 µg/mL
same,solubility,[6],0.6 µg/mL
same,solubility,[7],Insoluble
same,solubility,[8],0.1 µg/mL
CC1(C)Cc2c(c(C(=O)Nc3ccc(Cl)cn3)cc3nc(Nc4c(F)cccc4Cl)[nH]c23)O1,solubility,[1],Soluble
CC1(C)Cc2c(c(C(=O)NCC3CCCC3)cc3nc(Nc4c(Cl)cccc4Cl)[nH]c23)O1,solubility,[1],Soluble
CC1(C)Cc2c(c(C(=O)Nc3ccc(F)cc3)cc3nc(Nc4c(F)cccc4Cl)[nH]c23)O1,solubility,[1],Soluble
CC1(C)Cc2c(c(C(=O)Nc3cccc(C4CC4)c3)cc3nc(Nc4c(F)cccc4Cl)[nH]c23)O1,solubility,[1],Soluble
Cc1cc2c(o1)c(C(=O)Nc1ccc(C(F)(F)F)cc1)cc1nc(Nc3c(Cl)cccc3Cl)[nH]c12,solubility,[1],Insoluble
CC1(C)Cc2c(c(C(=O)Nc3ccc(C(F)(F)F)cc3F)cc3nc(Nc4c(Cl)cncc4Cl)[nH]c23)O1,solubility,[1],Soluble
Cc1cc2c(o1)c(C(=O)Nc1cccc(C(F)(F)F)c1)cc1nc(Nc3c(Cl)cccc3Cl)[nH]c12,solubility,[1],Insoluble
Cc1ccc(NC(=O)c2cc3nc(Nc4c(Cl)cccc4Cl)[nH]c3c3c2OC(C)(C)C3)c(C)n1,solubility,[1],Soluble
CC1(C)Cc2c(c(C(=O)Nc3ccc(C4CC4)cc3)cc3nc(Nc4c(F)cccc4Cl)[nH]c23)O1,solubility,[1],Soluble
CC1(C)Cc2c(c(C(=O)NCC(F)(F)F)cc3nc(Nc4c(Cl)cccc4Cl)[nH]c23)O1,solubility,[1],Soluble
CC1(C)Cc2c(c(C(=O)Nc3ccc(C(F)(F)F)nc3)cc3nc(Nc4c(Cl)cccc4Cl)[nH]c23)O1,solubility,[1],Soluble
CC1(C)Cc2c(c(C(=O)NC3CCCCC3)cc3nc(Nc4c(Cl)cncc4Cl)[nH]c23)O1,solubility,[1],Soluble
CC1(C)Cc2c(c(C(=O)Nc3ccc(C(F)(F)F)cc3)cc3nc(Nc4c(Cl)cncc4Cl)[nH]c23)O1,solubility,[1],Soluble
